In patent publication US20210300924A1, “5-[6-[[3-(4,5,6,7-TETRAHYDROPYRAZOLO[4,3-C]PYRIDIN-1-YL)AZETIDIN-1-YL]METHYL]MORPHOLIN-4-YL]QUINOLINE-8-CARBONITRILE DERIVATIVES AND SIMILAR COMPOUNDS AS TLR7-9 ANTAGONISTS FOR TREATING SYSTEMIC LUPUS ERYTHEMATOSUS” (Hoffmann-La Roche Inc., priority 2018, published 2021):

Key:
CYP2D6 = biological target: T1, CYP2D6 (Homo sapiens, UniProt P10635); assay: CYP inhibition assay in human liver microsome; format: in vitro ADME; conditions: human liver microsomes, probe dextromethorphan, dextromethorphan substrate, percentage inhibition <0: not or weak inhibitor, read-out: CYP 2D6 inhibition % @ 10 μM
T1 construct: tissue BD-Gentest 452117; host or cells: human liver microsomes
Procedure: This is a high throughput screening assay used for assessment of reversible inhibition of CYP2D6 activity of test compounds in human liver microsome (HLM) in early discovery stage.
10 mM DMSO stock solutions of test compounds were diluted in DMSO to generate 2 mM intermediate stock solution. 250 nL of intermediate stock solution were transferred in duplicate into 3 separate 384 well microtitre plates (assay-ready plates). A mixture of HLM and each substrate was made up. 45 μL of HLM substrate mix was then transferred to each well of an assay ready plate and mixed. The negative (solvent) and positive control (standard inhibitor for CYP 2D6) were included in each assay ready plate. The assay ready plate was warmed to 37° C. in an incubator over 10 minutes. 5 μL pre-warmed NADPH regenerating system was added to each incubation well to start the reaction. Final incubation volume was 50 μL. The assay plate then was placed back in the 37° C. incubator. After 10 minutes incubation, incubates were quenched by addition of 50 μL 100% acetonitrile containing internal standards (20 ng/mL D3-Dextrorphan). The supernatants were collected for RapidFire/MS/MS analysis.
RapidFire online solid phase extraction/sample injection system (Agilent) coupled with API4000 triple quadrupole mass spectrometer (AB Sciex) were used for sample analysis. The mobile phase composed of acetonitrile and water supplemented with 0.1% formic acid. A C4 solid phase extraction cartridge is used for sample separation. MS detection is achieved in positive ion MRM mode.
Peak areas for substrate, metabolite and internal standard are determined using the RapidFire integrator software (version 3.6.12009.12296). Peak area ratios (PAR) of metabolite and internal standard (stable-labelled metabolite) are then calculated. The measurement window for each experiment is then defined:
PAR (0% activity)=average PAR for all incubations containing concentrated inhibitor;
Par (100% activity)=average PAR for all incubations containing no inhibitor (DMSO controls);
% Activity (test inhibitor)=
[PAR(test inhibitor)−PAR(0% activity)]/[PAR(100% activity)−PAR(0% activity)]; % Inhibition (test inhibitor)=100−% Activity (test inhibitor).

TLR9 = biological target: T2, TLR9 (Homo sapiens, UniProt Q9NR96); assay: HEK293-Blue-hTLR-9 cells assay; format: cell-based; set-up: host or cells: HEK293 (HEK-Blue hTLR9); conditions: HEK293-Blue-hTLR9 cells, ODN2006 stimulation, 20 hrs, SEAP reporter; read-out: HEK/hTLR9 IC50
T2 sequence (Q9NR96 26-1032): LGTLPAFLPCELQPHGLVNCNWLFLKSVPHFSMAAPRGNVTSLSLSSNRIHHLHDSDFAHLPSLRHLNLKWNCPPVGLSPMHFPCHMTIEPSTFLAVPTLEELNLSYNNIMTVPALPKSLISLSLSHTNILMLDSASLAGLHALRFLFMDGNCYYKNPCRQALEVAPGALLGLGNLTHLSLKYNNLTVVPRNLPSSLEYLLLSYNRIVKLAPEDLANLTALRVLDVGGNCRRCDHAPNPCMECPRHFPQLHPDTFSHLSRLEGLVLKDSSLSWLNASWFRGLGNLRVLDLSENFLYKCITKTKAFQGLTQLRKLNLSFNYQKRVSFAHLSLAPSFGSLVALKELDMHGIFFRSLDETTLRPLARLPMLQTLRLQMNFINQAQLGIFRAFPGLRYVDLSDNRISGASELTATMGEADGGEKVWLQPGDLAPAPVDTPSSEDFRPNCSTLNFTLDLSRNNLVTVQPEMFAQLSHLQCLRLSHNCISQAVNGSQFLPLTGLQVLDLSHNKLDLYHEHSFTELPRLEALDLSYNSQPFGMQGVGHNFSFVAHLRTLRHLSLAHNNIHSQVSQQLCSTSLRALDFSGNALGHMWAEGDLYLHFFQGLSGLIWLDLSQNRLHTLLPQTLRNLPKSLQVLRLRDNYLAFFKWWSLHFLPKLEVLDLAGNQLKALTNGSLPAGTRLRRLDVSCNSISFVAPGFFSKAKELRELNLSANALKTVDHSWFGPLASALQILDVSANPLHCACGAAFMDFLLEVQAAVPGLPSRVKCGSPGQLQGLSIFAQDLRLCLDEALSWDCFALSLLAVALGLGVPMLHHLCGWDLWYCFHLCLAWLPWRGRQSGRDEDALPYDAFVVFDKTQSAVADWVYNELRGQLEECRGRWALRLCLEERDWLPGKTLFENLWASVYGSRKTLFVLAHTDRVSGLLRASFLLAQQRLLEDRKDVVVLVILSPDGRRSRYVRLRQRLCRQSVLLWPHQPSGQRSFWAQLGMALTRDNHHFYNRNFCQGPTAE
From the text: HEK293-Blue-hTLR-9 Cells Assay:
A stable HEK293-Blue-hTLR-9 cell line was purchased from InvivoGen (Cat. #: hkb-htlr9, San Diego, Calif., USA). These cells were originally designed for studying the stimulation of human TLR9 by monitoring the activation of NF-κB. A SEAP (secreted embryonic alkaline phosphatase) reporter gene was placed under the control of the IFN-β minimal promoter fused to five NF-κB and AP-1-binding sites. The SEAP was induced by activating NF-κB and AP-1 via stimulating HEK-Blue hTLR9 cells with TLR9 ligands. Therefore the reporter expression was declined by TLR9 antagonist under the stimulation of a ligand, such as ODN2006 (Cat. #: tlr1-2006-1, Invivogen, San Diego, Calif., USA), for incubation of 20 hrs. The cell culture supernatant SEAP reporter activity was determined using QUANTI-Blue™ kit (Cat. #: rep-01, Invivogen, San Diego, Calif., USA) at a wavelength of 640 nm, a detection medium that turns purple or blue in the presence of alkaline phosphatase.
HEK293-Blue-hTLR9 cells were incubated at a density of 250,000-450,000 cells/mL in a volume of 170 μL in a 96-well plate in Dulbecco's Modified Eagle's medium (DMEM) containing 4.5 g/L glucose, 50 U/mL penicillin, […], 2 mM L-glutamine, 10% (v/v) heat-inactivated fetal bovine serum with addition of 20 μL test compound in a serial dilution in the presence of final DMSO at 1% and 10 μL of 20 uM ODN2006 in above DMEM, perform incubation under 37° C. in a CO2 incubator for 20 hrs. Then 20 μL of the supernatant from each well was incubated with 180 μL Quanti-blue substrate solution at 37° C. for 2 h and the absorbance was read at 620-655 nm using a spectrophotometer. The signaling pathway that TLR9 activation leads to downstream NF-κB activation has been widely accepted, and therefore similar reporter assay was modified for evaluating TLR9 antagonist.

T1 sequence (P10635 whole entry): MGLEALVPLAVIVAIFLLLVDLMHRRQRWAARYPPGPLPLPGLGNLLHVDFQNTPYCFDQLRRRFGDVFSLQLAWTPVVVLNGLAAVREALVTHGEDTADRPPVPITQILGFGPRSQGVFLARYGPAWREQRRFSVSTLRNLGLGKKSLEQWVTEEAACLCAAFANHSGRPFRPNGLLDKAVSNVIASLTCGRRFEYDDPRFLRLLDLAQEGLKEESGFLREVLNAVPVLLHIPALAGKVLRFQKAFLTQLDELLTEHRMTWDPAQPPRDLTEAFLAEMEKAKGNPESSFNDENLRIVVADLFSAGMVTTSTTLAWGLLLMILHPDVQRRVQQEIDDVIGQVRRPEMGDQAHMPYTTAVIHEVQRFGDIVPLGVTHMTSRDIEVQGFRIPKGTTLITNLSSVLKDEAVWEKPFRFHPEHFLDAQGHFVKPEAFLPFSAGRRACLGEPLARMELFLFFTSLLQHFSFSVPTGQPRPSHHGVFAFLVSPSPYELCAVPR

| SMILES | inhibition at 10 min, 10 µM (CYP2D6) [%] | IC50 (TLR9) [nM] |
| --- | --- | --- |
| C[C@@H]1CN(c2ccc(C#N)c3ncccc23)C[C@H](CN2CC(n3cc4c(n3)CCN[C@H]4C)C2)O1 [Example 23, 5-[(2R,6S)-2-methyl-6-[[3-[(4S)-4-methyl-4,5,6,7-tetrahydropyrazolo[4,3-c]pyridin-2-yl]azetidin-1-yl]methyl]morpholin-4-yl]quinoline-8-carbonitrile] | 3 | 84 |
| C[C@@H]1CN(c2ccc(C#N)c3ncccc23)C[C@H](CN2CC(n3cc4c(n3)CCNC4)C2)O1 [Example 2, 5-[(2R,6S)-2-methyl-6-[[3-(4,5,6,7-tetrahydropyrazolo[4,3-c]pyridin-2-yl)azetidin-1-yl]methyl]morpholin-4-yl]quinoline-8-carbonitrile] | 1 | 66 |
| C[C@@H]1CN(c2ccc(C#N)c3ncccc23)C[C@H](CN2CC(n3ncc4c3CN[C@@H](C)C4)C2)O1 (single isomer, unassigned) [Example 27] | 22 | 65 |
| C[C@@H]1Cc2cn(C3CN(C[C@H]4CN(c5ccc(C#N)c6ncccc56)C[C@@H](C)O4)C3)nc2CN1 (single isomer, unassigned) [Example 30] | 3.5 | 57 |
| C[C@@H]1CN(c2ccc(C#N)c3ncccc23)C[C@H](CN2CC(n3ncc4c3[C@@H](C)NCC4)C2)O1 (single isomer, unassigned) [Example 31] | -3.5 | 61 |
| Cc1c2c(nn1C1CN(C[C@H]3CN(c4ccc(C#N)c5ncccc45)C[C@@H](C)O3)C1)CCN(C)C2 [Example 15, 5-[(2S,6R)-2-[[3-(3,5-dimethyl-6,7-dihydro-4H-pyrazolo[4,3-c]pyridin-2-yl)azetidin-1-yl]methyl]-6-methyl-morpholin-4-yl]quinoline-8-carbonitrile] | -10.5 | 128 |
| C[C@@H]1CN(c2ccc(C#N)c3ncccc23)C[C@H](CN2CC(n3cc4c(n3)CN(C)CC4)C2)O1 [Example 5, 5-[(2R,6S)-2-methyl-6-[[3-(6-methyl-5,7-dihydro-4H-pyrazolo[3,4-c]pyridin-2-yl)azetidin-1-yl]methyl]morpholin-4-yl]quinoline-8-carbonitrile] | -1.5 | 137 |
| C[C@@H]1CN(c2ccc(C#N)c3ncccc23)C[C@H](CN2CCC(n3cc4c(n3)CCNC4)CC2)O1 [Example 36, 5-[(2R,6S)-2-methyl-6-[[4-(4,5,6,7-tetrahydropyrazolo[4,3-c]pyridin-2-yl)-1-piperidyl]methyl]morpholin-4-yl]quinoline-8-carbonitrile] | 20.3 | 55 |

More lines, in order of falling IC50 (TLR9), values ahead:

| inhibition at 10 min, 10 µM (CYP2D6) [%] | IC50 (TLR9) [nM] | SMILES |
| --- | --- | --- |
| 15 | 172 | CC(C)N1CCc2cn(C3CN(C[C@H]4CN(c5ccc(C#N)c6ncccc56)C[C@@H](C)O4)C3)nc2C1 [Example 9, 5-[(2S,6R)-2-[[3-(6-isopropyl-5,7-dihydro-4H-pyrazolo[3,4-c]pyridin-2-yl)azetidin-1-yl]methyl]-6-methyl-morpholin-4-yl]quinoline-8-carbonitrile] |
| -2.5 | 147 | C[C@@H]1CN(c2ccc(C#N)c3ncccc23)C[C@H](CN2CC(n3ncc4c3C[C@H](C)NC4)C2)O1 [Example 18, 5-[(2R,6S)-2-methyl-6-[[3-[(6S)-6-methyl-4,5,6,7-tetrahydropyrazolo[4,3-c]pyridin-1-yl]azetidin-1-yl]methyl]morpholin-4-yl]quinoline-8-carbonitrile] |
| -2.5 | 122 | C[C@@H]1CN(c2ccc(C#N)c3ncccc23)C[C@H](CN2CC(n3cc4c(n3)C[C@H](C)NC4)C2)O1 [Example 19, 5-[(2R,6S)-2-methyl-6-[[3-[(6S)-6-methyl-4,5,6,7-tetrahydropyrazolo[4,3-c]pyridin-2-yl]azetidin-1-yl]methyl]morpholin-4-yl]quinoline-8-carbonitrile] |
| 20 | 89 | C[C@@H]1CN(c2ccc(C#N)c3ncccc23)C[C@H](CN2CC(n3cc4c(n3)[C@@H](C)CNC4)C2)O1 (single isomer, unassigned) [Example 26] |
| 8 | 78 | C[C@@H]1Cc2c(cnn2C2CN(C[C@H]3CN(c4ccc(C#N)c5ncccc45)C[C@@H](C)O3)C2)CN1 [Example 16, 5-[(2R,6S)-2-methyl-6-[[3-[(6R)-6-methyl-4,5,6,7-tetrahydropyrazolo[4,3-c]pyridin-1-yl]azetidin-1-yl]methyl]morpholin-4-yl]quinoline-8-carbonitrile] |
| 5.5 | 70 | C[C@@H]1CN(c2ccc(C#N)c3ncccc23)C[C@H](CN2CC(n3ncc4c3CCN[C@H]4C)C2)O1 [Example 22, 5-[(2R,6S)-2-methyl-6-[[3-[(4S)-4-methyl-4,5,6,7-tetrahydropyrazolo[4,3-c]pyridin-1-yl]azetidin-1-yl]methyl]morpholin-4-yl]quinoline-8-carbonitrile] |
| 11 | 62 | C[C@@H]1CN(c2ccc(C#N)c3ncccc23)C[C@H](CN2CC(n3ncc4c3[C@H](C)NCC4)C2)O1 (single isomer, unassigned) [Example 32] |
| 10.5 | 51 | C[C@@H]1CN(c2ccc(C#N)c3ncccc23)C[C@H](CN2CC(n3ncc4c3CNCC4)C2)O1 [Example 3, 5-[(2R,6S)-2-methyl-6-[[3-(4,5,6,7-tetrahydropyrazolo[3,4-c]pyridin-1-yl)azetidin-1-yl]methyl]morpholin-4-yl]quinoline-8-carbonitrile] |
